# Laboratory results reported in patent publication US7906533B2, “Nicotinamide pyridinureas as vascular endothelial growth factor (VEGF) receptor kinase inhibitors” (Bayer Schering Pharma AG, priority 2004, dated 2011).
# How the values were obtained:
# [1] = biological target: T1, KDR-Kinase (VEGFR-2) (Homo sapiens, UniProt P35968); experiment: KDR Kinase Inhibition; format: biochemical; conditions: GST-kinase domain fusion construct of the KDR kinase; poly(Glu4Tyr) substrate, 32P-γATP
# T1 construct: GST-kinase domain fusion construct of the KDR kinase; GST
# Procedure: Kinase activity was measured with a GST-kinase domain fusion construct of the KDR kinase according to the following protocol to obtain concentration response curves. Components were added into a microtiterplate in the following sequence: 10 μl of inhibitor in threefold final concentration [3% DMSO in buffer (40 mM Tris Cl pH 7.5; 1 mM DTT, 1 mM MnCl2, 10 mM MgCl2, 2.5 Promille Polyethyleneglycol 20000)] and 10 μl of substrate mixture [24 μM ATP, 24 μg/ml poly(Glu4Tyr) in buffer, specific activity approx. 500 cpm/pmol ^32P-γATP]. Reaction was started by adding 10 μl of enzyme preparation diluted appropriately in buffer that contains 10 μM vanadate. After incubation for exactly 10 min the reaction was stopped by adding of 10 μl stop solution (250 mM EDTA). 10 μl of the reaction mixture were transferred to phosphocellulose filters. The filters were washed in 0.1% phosphoric acid, dried before meltilex scintillator was applied (Wallac, Perkin-Elmer) and the radioactivity was counted.
# [2] = biological target: T2, human Cytochrome P 450 isoenzyme 2C9 (Homo sapiens, UniProt P11712); experiment: Cytochrome P450 Inhibition (2C9); format: in vitro ADME; conditions: baculovirus/insect cell-expressed human isoenzyme; read-out: IC50 CYP 2C9
# T2 construct: host or cells: baculovirus/insect cells
# Procedure: (§1) The Cytochrome P450 isoenzyme inhibition was performed according to the publication of Crespi et al. (Anal. Biochem., 1997, 248, 188-190) with use of the baculovirus/insect cell-expressed, human Cytochrome P 450 isoenzymes (2C9 and 2C19).
# [3] = biological target: T3, human Cytochrome P 450 isoenzyme 2C19 (Homo sapiens, UniProt P33261); experiment: Cytochrome P450 Inhibition (2C19); format: in vitro ADME; conditions: baculovirus/insect cell-expressed human isoenzyme; read-out: IC50 CYP 2C19
# T3 construct: host or cells: baculovirus/insect cells
# Procedure: as §1
# T3 sequence (P33261 whole entry): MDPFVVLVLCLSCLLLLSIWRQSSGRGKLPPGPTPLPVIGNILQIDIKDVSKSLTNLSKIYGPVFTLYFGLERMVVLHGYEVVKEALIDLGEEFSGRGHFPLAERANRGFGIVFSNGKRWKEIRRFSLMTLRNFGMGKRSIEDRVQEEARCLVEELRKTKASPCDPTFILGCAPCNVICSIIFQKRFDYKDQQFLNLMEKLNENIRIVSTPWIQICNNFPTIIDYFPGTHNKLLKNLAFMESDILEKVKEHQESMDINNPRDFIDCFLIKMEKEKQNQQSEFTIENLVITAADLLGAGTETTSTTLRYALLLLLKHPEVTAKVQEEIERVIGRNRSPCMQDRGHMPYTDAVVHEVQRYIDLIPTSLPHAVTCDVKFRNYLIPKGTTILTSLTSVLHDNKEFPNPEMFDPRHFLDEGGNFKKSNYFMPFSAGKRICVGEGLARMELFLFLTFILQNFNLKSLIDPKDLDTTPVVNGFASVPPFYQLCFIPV
# T2 sequence (P11712 whole entry): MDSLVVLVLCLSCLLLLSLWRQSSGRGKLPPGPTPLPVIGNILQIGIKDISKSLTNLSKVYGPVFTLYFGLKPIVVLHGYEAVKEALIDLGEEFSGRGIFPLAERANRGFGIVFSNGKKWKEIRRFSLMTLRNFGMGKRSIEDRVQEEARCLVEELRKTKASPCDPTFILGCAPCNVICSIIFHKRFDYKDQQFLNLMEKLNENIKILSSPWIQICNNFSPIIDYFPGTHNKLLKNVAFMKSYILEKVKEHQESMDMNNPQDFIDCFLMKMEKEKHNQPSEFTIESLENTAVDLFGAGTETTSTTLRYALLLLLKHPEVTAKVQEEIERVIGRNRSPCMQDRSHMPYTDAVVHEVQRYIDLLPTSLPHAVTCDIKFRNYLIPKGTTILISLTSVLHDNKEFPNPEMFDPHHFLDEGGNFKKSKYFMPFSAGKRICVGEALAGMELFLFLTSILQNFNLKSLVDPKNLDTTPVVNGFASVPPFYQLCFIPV
# T1 sequence (P35968 834-1162 limits assumed, species assumed): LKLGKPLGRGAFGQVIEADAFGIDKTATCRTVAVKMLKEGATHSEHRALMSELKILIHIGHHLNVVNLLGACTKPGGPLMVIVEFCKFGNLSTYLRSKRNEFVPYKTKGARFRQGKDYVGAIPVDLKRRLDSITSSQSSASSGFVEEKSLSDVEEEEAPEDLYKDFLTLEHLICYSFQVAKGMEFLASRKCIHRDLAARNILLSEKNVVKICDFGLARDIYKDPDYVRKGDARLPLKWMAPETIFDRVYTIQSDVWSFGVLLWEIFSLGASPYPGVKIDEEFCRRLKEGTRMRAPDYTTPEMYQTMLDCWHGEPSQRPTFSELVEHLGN
SMILES,IC50 [1] [µM],IC50 [2] [µM],IC50 [3] [µM],melting point [°C]
"CNC(=O)Nc1cc(CNc2ncccc2C(=O)Nc2ccc3cn(C)nc3c2)ccn1 [Example 1.0, N-(2-methyl-2H-indazol-6-yl)-2-{[2-(3-methyl-ureido)-pyridin-4-ylmethyl]-amino}-nicotinamide]",0.01,11.7,> 30,205 to 207
"CNC(=O)Nc1cc(CNc2ncccc2C(=O)Nc2cccc(C(F)(F)F)c2)ccn1 [Example 1.1, 2-{[2-(3-methyl-ureido)-pyridin-4-ylmethyl]-amino}-N-(3-trifluoromethyl-phenyl)-nicotinamide]",–,–,–,206 to 207
"CNC(=O)Nc1cc(CNc2ncccc2C(=O)Nc2cc3ccccc3cn2)ccn1 [Example 1.3, N-isoquinolin-3-yl-2-{[2-(3-methyl-ureido)-pyridin-4-ylmethyl]-amino}-nicotinamide]",–,–,–,191 to 192
"Cn1cc2ccc(NC(=O)c3cccnc3NCc3ccnc(NC(=O)N4CCOCC4)c3)cc2n1 [Example 2.0, morpholine-4-carboxylic acid (4-{[3-(2-methyl-2H-indazol-6-ylcarbamoyl)-pyridin-2-ylamino]-methyl}-pyridin-2-yl)-amide]",0.029,> 30,> 30,–

# Second part, the compound after the results:
IC50 [1] [µM],IC50 [2] [µM],IC50 [3] [µM],melting point [°C],SMILES
–,–,–,228 to 229,"CNC(=O)Nc1cc(CNc2ncccc2C(=O)Nc2ccc3cnn(C)c3c2)ccn1 [Example 1.2, N-(1-methyl-1H-indazol-6-yl)-2-{[2-(3-methyl-ureido)-pyridin-4-ylmethyl]-amino}-nicotinamide]"
–,–,–,219 to 220,"CNC(=O)Nc1cc(CNc2ncccc2C(=O)Nc2ccc3c(cnn3C)c2)ccn1 [Example 1.4, N-(1-methyl-1H-indazol-5-yl)-2-{[2-(3-methyl-ureido)-pyridin-4-ylmethyl]-amino}-nicotinamide]"
